Data on ten compounds can be found in ChEMBL document CHEMBL1629509, “Design, synthesis and inhibitory activity against Mycobacterium tuberculosis thymidine monophosphate kinase of acyclic nucleoside analogues with a distal imidazoquinolinone” (Eur J Med Chem, 2010).

One data set deals with T1, Thymidylate kinase (Mycobacterium tuberculosis, UniProt P9WKE1).
T1 sequence (P9WKE1 whole entry): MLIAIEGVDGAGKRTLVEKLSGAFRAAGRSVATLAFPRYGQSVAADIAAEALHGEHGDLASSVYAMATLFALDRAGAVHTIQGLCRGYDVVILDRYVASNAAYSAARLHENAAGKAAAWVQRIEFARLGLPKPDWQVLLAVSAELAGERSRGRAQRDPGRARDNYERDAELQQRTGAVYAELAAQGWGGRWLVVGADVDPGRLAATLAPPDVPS
Put plainly: Inhibition of Mycobacterium tuberculosis Thymidine monophosphate kinase by spectrophotometry.

Data set [1] deals with Mycolicibacterium smegmatis. Briefly: Antimycobacterial activity against Mycobacterium smegmatis mc2155 assessed as growth inhibition at 160 ug/ml by resazurin microtiter plate assay. Format: functional, organism-based. A general note: Alamar Blue is a resazurin reagent that responds to reducing activity.
Data set [2] can be described thus: Solubility of the compound in water. Format: physicochemical.

Converted amounts (≈) assume the structure as drawn. The source made the active and inactive calls. No cut-off for these calls is given here.

As usually defined, the Ki is the dissociation constant of the complex between target and ligand, obtained from inhibition or displacement. A higher Ki goes with weaker binding. Compound `Cc1cn(C/C=C/Cn2c(=O)n3c4c(cc(N)cc42)CCC3)c(=O)[nH]c1=O` showed a Ki at Thymidylate kinase of 2460 nM. Also, the outcome in data set [1] was inactive.
With `Cc1cn([C@H]2C[C@H](O)[C@@H](COP(=O)(O)O)O2)c(=O)[nH]c1=O` [THYMIDINE MONOPHOSPHATE], on Thymidylate kinase, the affinity, expressed as Ki, was 4500 nM. This lies in the single-digit micromolar range.
On to `CC(=O)NC1Cc2cccc3c2n(c(=O)n3C/C=C/Cn2cc(C)c(=O)[nH]c2=O)C1` (stereo not drawn), for which affinity at Thymidylate kinase was put at a Ki of 5800 nM. Also, the outcome in data set [1] was inactive.
On Thymidylate kinase, `O=c1[nH]c(=O)n(C/C=C/CN2c3cccc4c3N(CCC4)S2(=O)=O)cc1Br` showed a Ki of 300 nM. The result in data set [1] was inactive.
For `Cc1cn(C/C=C/CN2c3cccc4c3N(CCC4)S2(=O)=O)c(=O)[nH]c1=O`, the affinity at Thymidylate kinase, expressed as Ki, was 570 nM. Moreover, in data set [1], the outcome was inactive.
At Thymidylate kinase, `Cc1cn(C/C=C/Cn2c(=O)n3c4c(cccc42)CCC3)c(=O)[nH]c1=O` showed a Ki of 1160 nM. Moreover, the result in data set [1] was inactive.
As for `Cc1cn(C/C=C/CN2c3cccc4cccc(c34)S2(=O)=O)c(=O)[nH]c1=O`, the Ki on Thymidylate kinase stood at 270 nM.
On Thymidylate kinase, `CC(=O)Nc1cc2c3c(c1)n(C/C=C/Cn1cc(C)c(=O)[nH]c1=O)c(=O)n3CCC2` displayed a Ki of 930 nM. In addition, the result in data set [1] was inactive.
A word on the solubility: it is the concentration that dissolves in the medium under given conditions. Lower therefore signals little dissolved substance. `Cc1cn(C/C=C/CN2C(=O)c3cccc4cccc2c34)c(=O)[nH]c1=O`: the Ki on Thymidylate kinase worked out at 420 nM. In data set [2], this compound came in with a solubility of 640 µg/mL (≈ 1840 µM).
`Cc1cn(C/C=C/Cn2c(=O)n3c4c(cccc42)CC(N)C3)c(=O)[nH]c1=O` (stereo not drawn) returned a Ki on Thymidylate kinase of 7070 nM. In addition, in data set [1], the outcome was inactive.
